Laboratory results: article PMC5218480 (PLoS ONE, 2017)

System: MV-4-11 cells
Assay: Gene expression microarray analysis (Affymetrix PrimeView) and GSEA
Type: cell-based, human
Parameters: RFU PODN (11730768_x_at) / Fold change /veh PODN (11730768_x_at) / RFU LINC00158 (11744669_a_at) / Fold change /veh LINC00158 (11744669_a_at) / RFU DUSP10 (11751237_a_at) / Fold change /veh DUSP10 (11751237_a_at) / RFU ID3 (11757404_x_at) / Fold change /veh ID3 (11757404_x_at) / RFU PLEKHG5 (11737974_s_at) / Fold change /veh PLEKHG5 (11737974_s_at) / RFU LRRC4B (11730491_at) / Fold change /veh LRRC4B (11730491_at) / RFU GIMAP4 (11747438_a_at) / Fold change /veh GIMAP4 (11747438_a_at) / RFU KRT8 (11758183_x_at) / Fold change /veh KRT8 (11758183_x_at) / RFU CNN1 (11734310_a_at) / Fold change /veh CNN1 (11734310_a_at) / RFU VPS37D (11726825_at) / Fold change /veh VPS37D (11726825_at) / RFU C10orf10 (11716522_x_at) / Fold change /veh C10orf10 (11716522_x_at) / RFU KIR2DL2 /// KIR2DL4 /// KIR2DL5A /// KIR2DL5B /// KIR2DS1 /// KIR2DS2 /// KIR2DS3 /// KIR2DS4 /// KIR3DL3 /// KIR3DL3 /// KIR3DS1 (11738374_at) / Fold change /veh KIR2DL2 /// KIR2DL4 /// KIR2DL5A /// KIR2DL5B /// KIR2DS1 /// KIR2DS2 /// KIR2DS3 /// KIR2DS4 /// KIR3DL3 /// KIR3DL3 /// KIR3DS1 (11738374_at) / RFU C1QL1 (11718748_at) / Fold change /veh C1QL1 (11718748_at) / RFU TMPRSS4 (11747572_a_at) / Fold change /veh TMPRSS4 (11747572_a_at) / RFU HAMP (11756126_x_at) / Fold change /veh HAMP (11756126_x_at) / RFU RNFT2 (11725882_a_at) / Fold change /veh RNFT2 (11725882_a_at) / RFU NR4A2 (11747474_a_at) / Fold change /veh NR4A2 (11747474_a_at) / RFU ABCC12 (11746883_a_at) / Fold change /veh ABCC12 (11746883_a_at) / RFU TMEM136 (11760407_x_at) / Fold change /veh TMEM136 (11760407_x_at) / RFU CLDN22 /// WWC2 (11732394_at) / Fold change /veh CLDN22 /// WWC2 (11732394_at) / RFU HLA-DPB1 (11760878_x_at) / Fold change /veh HLA-DPB1 (11760878_x_at) / RFU SPINT1 (11716480_a_at) / Fold change /veh SPINT1 (11716480_a_at) / RFU GAP43 (11754022_s_at) / Fold change /veh GAP43 (11754022_s_at) / RFU A4GNT (11735810_at) / Fold change /veh A4GNT (11735810_at) / RFU PRB3 (11715151_x_at) / Fold change /veh PRB3 (11715151_x_at) / RFU TUBB4B (11761932_at) / Fold change /veh TUBB4B (11761932_at) / RFU CAPN14 (11732068_a_at) / Fold change /veh CAPN14 (11732068_a_at) / RFU TMCC2 (11721928_a_at) / Fold change /veh TMCC2 (11721928_a_at) / RFU IRGQ (11745062_a_at) / Fold change /veh IRGQ (11745062_a_at) / RFU FAM174B (11720279_a_at) / Fold change /veh FAM174B (11720279_a_at) / RFU TMPRSS4 (11748680_a_at) / Fold change /veh TMPRSS4 (11748680_a_at) / RFU FAM212B (11763350_a_at) / Fold change /veh FAM212B (11763350_a_at) / RFU PLEKHG5 (11743358_a_at) / Fold change /veh PLEKHG5 (11743358_a_at) / RFU ZSCAN30 (11745921_a_at) / Fold change /veh ZSCAN30 (11745921_a_at) / RFU CMKLR1 (11741424_a_at) / Fold change /veh CMKLR1 (11741424_a_at) / RFU LOC101060620 /// MAPK8IP1 (11723275_at) / Fold change /veh LOC101060620 /// MAPK8IP1 (11723275_at) / RFU SPTSSB (11747773_x_at) / Fold change /veh SPTSSB (11747773_x_at) / RFU PRSS12 (11739890_at) / Fold change /veh PRSS12 (11739890_at) / RFU BIN1 (11741810_x_at) / Fold change /veh BIN1 (11741810_x_at) / RFU WNT11 (11732464_a_at) / Fold change /veh WNT11 (11732464_a_at) / RFU C10orf10 (11716521_a_at) / Fold change /veh C10orf10 (11716521_a_at) / RFU C5orf56 (11738089_at) / Fold change /veh C5orf56 (11738089_at) / RFU CYB561 (11721691_x_at) / Fold change /veh CYB561 (11721691_x_at) / RFU ANKRD19P (11752326_a_at) / Fold change /veh ANKRD19P (11752326_a_at) / RFU OR2T12 /// OR2T33 /// OR2T8 (11738714_s_at) / Fold change /veh OR2T12 /// OR2T33 /// OR2T8 (11738714_s_at) / RFU VCAN (11748164_a_at) / Fold change /veh VCAN (11748164_a_at) / RFU JSRP1 (11732532_at) / Fold change /veh JSRP1 (11732532_at) / RFU KRTAP10-11 (11738290_x_at) / Fold change /veh KRTAP10-11 (11738290_x_at) / RFU MYO3A (11730013_a_at) / Fold change /veh MYO3A (11730013_a_at) / RFU EBF3 (11725865_a_at) / Fold change /veh EBF3 (11725865_a_at) / RFU CAMK2N1 (11719241_x_at) / Fold change /veh CAMK2N1 (11719241_x_at) / RFU C5orf56 (11738088_a_at) / Fold change /veh C5orf56 (11738088_a_at) / RFU OLFML3 (11715873_a_at) / Fold change /veh OLFML3 (11715873_a_at) / RFU LOC100653217 /// NTM (11731650_a_at) / Fold change /veh LOC100653217 /// NTM (11731650_a_at) / RFU MAPK11 (11762145_a_at) / Fold change /veh MAPK11 (11762145_a_at) / RFU FIZ1 (11724087_x_at) / Fold change /veh FIZ1 (11724087_x_at) / RFU OASL (11726364_x_at) / Fold change /veh OASL (11726364_x_at) / RFU SOX15 (11748057_x_at) / Fold change /veh SOX15 (11748057_x_at) / RFU CD79A (11719716_a_at) / Fold change /veh CD79A (11719716_a_at) / RFU HIST1H1D (11736915_at) / Fold change /veh HIST1H1D (11736915_at) / RFU CASKIN2 (11723855_a_at) / Fold change /veh CASKIN2 (11723855_a_at) / RFU LOC730098 (11760151_x_at) / Fold change /veh LOC730098 (11760151_x_at) / RFU OR4N2 (11742367_at) / Fold change /veh OR4N2 (11742367_at) / RFU PRRT2 (11749266_a_at) / Fold change /veh PRRT2 (11749266_a_at) / RFU SNX32 (11753110_a_at) / Fold change /veh SNX32 (11753110_a_at) / RFU CDHR5 (11726645_a_at) / Fold change /veh CDHR5 (11726645_a_at) / RFU RCAN1 (11760418_a_at) / Fold change /veh RCAN1 (11760418_a_at) / RFU FAM167A (11723789_a_at) / Fold change /veh FAM167A (11723789_a_at) / RFU FAM26E (11764081_at) / Fold change /veh FAM26E (11764081_at) / RFU ISYNA1 (11749810_s_at) / Fold change /veh ISYNA1 (11749810_s_at) / RFU ACY1 (11761880_at) / Fold change /veh ACY1 (11761880_at) / RFU 11764098_at / Fold change /veh 11764098_at / RFU SAMD14 (11745864_x_at) / Fold change /veh SAMD14 (11745864_x_at) / RFU NPB (11741838_a_at) / Fold change /veh NPB (11741838_a_at) / RFU TMPRSS6 (11731388_a_at) / Fold change /veh TMPRSS6 (11731388_a_at) / RFU KRTAP10-2 (11738614_at) / Fold change /veh KRTAP10-2 (11738614_at) / RFU ARHGAP8 /// PRR5-ARHGAP8 (11727945_x_at) / Fold change /veh ARHGAP8 /// PRR5-ARHGAP8 (11727945_x_at) / RFU KRTAP5-7 /// NADSYN1 (11734609_at) / Fold change /veh KRTAP5-7 /// NADSYN1 (11734609_at) / RFU RASL12 (11751679_a_at) / Fold change /veh RASL12 (11751679_a_at) / RFU CDKN2B (11736163_a_at) / Fold change /veh CDKN2B (11736163_a_at) / RFU PRF1 (11729649_at) / Fold change /veh PRF1 (11729649_at) / RFU, ZNF638 /// ZNF638-IT1 / Fold change vs veh, ZNF638 /// ZNF638-IT1 / RFU, PANK3 / Fold change vs veh, PANK3 / RFU, SH3YL1 / Fold change vs veh, SH3YL1 / RFU, ZEB2 / Fold change vs veh, ZEB2 / RFU, NRIP1 / Fold change vs veh, NRIP1 / RFU, PTTG1IP / Fold change vs veh, PTTG1IP / RFU, CAPN2 / Fold change vs veh, CAPN2 / RFU, MED14 / Fold change vs veh, MED14 / RFU, SNORA58 / Fold change vs veh, SNORA58 / RFU, C1orf63 / Fold change vs veh, C1orf63 / RFU, LRRFIP1 / Fold change vs veh, LRRFIP1 / RFU, NDUFAF7 / Fold change vs veh, NDUFAF7 / RFU, SLC12A2 / Fold change vs veh, SLC12A2 / RFU, IBTK / Fold change vs veh, IBTK / RFU, ESF1 / Fold change vs veh, ESF1 / Fold change vs veh, TMEM50B / RFU, TAOK1 / Fold change vs veh, TAOK1 / RFU, ACBD3 / Fold change vs veh, ACBD3 / RFU, TMA16 / Fold change vs veh, TMA16 / RFU, RWDD3 / Fold change vs veh, RWDD3 / RFU, BCAT1 / Fold change vs veh, BCAT1 / RFU, EDEM3 / Fold change vs veh, EDEM3 / RFU, TMEM33 / Fold change vs veh, TMEM33 / RFU, WDR75 / Fold change vs veh, WDR75 / RFU, AHCTF1 / Fold change vs veh, AHCTF1 / RFU, TFRC / Fold change vs veh, TFRC / RFU, ZDHHC17 / Fold change vs veh, ZDHHC17 / RFU, NOM1 / Fold change vs veh, NOM1 / RFU, ARL8B / Fold change vs veh, ARL8B / RFU, ZBTB11 / Fold change vs veh, ZBTB11 / RFU, TAMM41 / Fold change vs veh, TAMM41 / RFU, KIAA1704 /// LOC100996395 / Fold change vs veh, KIAA1704 /// LOC100996395 / RFU, ING1 / Fold change vs veh, ING1 / RFU, TRMT61B / Fold change vs veh, TRMT61B / RFU, FUBP3 / Fold change vs veh, FUBP3 / RFU, TP53 / Fold change vs veh, TP53 / RFU, TNKS2 / Fold change vs veh, TNKS2 / RFU, ZFP14 / Fold change vs veh, ZFP14 / RFU, ACTR2 / Fold change vs veh, ACTR2 / RFU, PPP3R1 / Fold change vs veh, PPP3R1 / RFU, PIK3R1 / Fold change vs veh, PIK3R1 / RFU, HNRNPA1 / Fold change vs veh, HNRNPA1 / RFU, RNF170 / Fold change vs veh, RNF170 / RFU, ZNF28 / Fold change vs veh, ZNF28 / RFU, RNGTT / Fold change vs veh, RNGTT / RFU, OGT / Fold change vs veh, OGT / RFU, BRD1 / Fold change vs veh, BRD1 / RFU, MARS / Fold change vs veh, MARS / RFU, ZNF655 / Fold change vs veh, ZNF655 / RFU, FAHD1 / Fold change vs veh, FAHD1 / RFU, BDP1 / Fold change vs veh, BDP1 / RFU, LRRCC1 / Fold change vs veh, LRRCC1 / RFU, ARID1A / Fold change vs veh, ARID1A / RFU, ZNF146 / Fold change vs veh, ZNF146 / RFU, ZNF330 / Fold change vs veh, ZNF330 / RFU, GPN3 / Fold change vs veh, GPN3 / RFU, C9orf123 / Fold change vs veh, C9orf123 / RFU, N4BP2L2 / Fold change vs veh, N4BP2L2 / RFU, ARFIP1 / Fold change vs veh, ARFIP1 / RFU, FAM179B / Fold change vs veh, FAM179B / RFU, BCL10 / Fold change vs veh, BCL10 / RFU, UHRF1BP1L / Fold change vs veh, UHRF1BP1L / RFU, BET1 / Fold change vs veh, BET1 / RFU, CNOT2 / Fold change vs veh, CNOT2 / RFU, ZNF268 / Fold change vs veh, ZNF268 / Fold change vs veh, ZNF507 / RFU, DGCR2 / Fold change vs veh, DGCR2 / RFU, WDSUB1 / Fold change vs veh, WDSUB1 / Fold change vs veh, HSP90B1 /// MIR3652 / RFU, ADSS / Fold change vs veh, ADSS / RFU, GK / Fold change vs veh, GK / RFU, ZNF148 / Fold change vs veh, ZNF148 / RFU, TAF9 / Fold change vs veh, TAF9 / RFU, SLC1A5 / Fold change vs veh, SLC1A5 / RFU, SLMO2 / Fold change vs veh, SLMO2 / RFU, ABCC4 / Fold change vs veh, ABCC4 / RFU, LOC101060439 /// RAP1B / Fold change vs veh, LOC101060439 /// RAP1B / RFU, RFX7 / Fold change vs veh, RFX7 / RFU, GTPBP10 / Fold change vs veh, GTPBP10 / RFU, CNEP1R1 / Fold change vs veh, CNEP1R1 / RFU, BIVM-ERCC5 /// ERCC5 / Fold change vs veh, BIVM-ERCC5 /// ERCC5 / RFU, ILF3 / Fold change vs veh, ILF3 / RFU 11762660_at / Fold change /veh 11762660_at / RFU VCAN (11757783_s_at) / Fold change /veh VCAN (11757783_s_at) / RFU DDX43 (11728927_at) / Fold change /veh DDX43 (11728927_at) / RFU KRT8 (11758188_x_at) / Fold change /veh KRT8 (11758188_x_at) / RFU NKD1 (11759106_at) / Fold change /veh NKD1 (11759106_at) / RFU SRD5A1 (11742802_a_at) / Fold change /veh SRD5A1 (11742802_a_at) / RFU TPSAB1 /// TPSB2 (11721975_s_at) / Fold change /veh TPSAB1 /// TPSB2 (11721975_s_at) / RFU GSTM3 (11746129_a_at) / Fold change /veh GSTM3 (11746129_a_at) / RFU IL23R (11737362_x_at) / Fold change /veh IL23R (11737362_x_at) / RFU TMEM51 (11727254_a_at) / Fold change /veh TMEM51 (11727254_a_at) / RFU PIWIL2 (11732686_x_at) / Fold change /veh PIWIL2 (11732686_x_at) / RFU ORM1 (11744905_x_at) / Fold change /veh ORM1 (11744905_x_at) / RFU CCDC152 (11743942_at) / Fold change /veh CCDC152 (11743942_at) / RFU ECM1 (11717891_a_at) / Fold change /veh ECM1 (11717891_a_at) / RFU IL23R (11748794_a_at) / Fold change /veh IL23R (11748794_a_at) / RFU TNFAIP8L3 (11732012_x_at) / Fold change /veh TNFAIP8L3 (11732012_x_at) / RFU MBOAT4 (11741988_at) / Fold change /veh MBOAT4 (11741988_at) / RFU 11764193_at / Fold change /veh 11764193_at / RFU TMEM53 (11763286_at) / Fold change /veh TMEM53 (11763286_at) / RFU MAGEB2 (11727129_at) / Fold change /veh MAGEB2 (11727129_at) / RFU TMEM200A (11744735_a_at) / Fold change /veh TMEM200A (11744735_a_at) / RFU CCDC152 (11751479_a_at) / Fold change /veh CCDC152 (11751479_a_at) / RFU FAM211A (11726209_a_at) / Fold change /veh FAM211A (11726209_a_at) / RFU RGS16 (11746705_a_at) / Fold change /veh RGS16 (11746705_a_at) / RFU VCAN (11755009_s_at) / Fold change /veh VCAN (11755009_s_at) / RFU RHOB (11743442_s_at) / Fold change /veh RHOB (11743442_s_at) / RFU RGS16 (11720943_a_at) / Fold change /veh RGS16 (11720943_a_at) / RFU RGS16 (11720944_at) / Fold change /veh RGS16 (11720944_at) / RFU, VPS4B / Fold change vs veh, VPS4B / RFU, CREB1 / Fold change vs veh, CREB1 / RFU, DNAJC13 / Fold change vs veh, DNAJC13 / RFU, GNAQ / Fold change vs veh, GNAQ / RFU, CDK5R1 / Fold change vs veh, CDK5R1 / RFU, ZRANB3 / Fold change vs veh, ZRANB3 / RFU, CUL4A / Fold change vs veh, CUL4A / RFU, CCNY / Fold change vs veh, CCNY / RFU, UFL1 / Fold change vs veh, UFL1 / RFU, COG3 / Fold change vs veh, COG3 / RFU, DIAPH2 / Fold change vs veh, DIAPH2 / RFU, SKA2 / Fold change vs veh, SKA2 / RFU, AFF3 / Fold change vs veh, AFF3 / RFU, LMF1 / Fold change vs veh, LMF1 / RFU, IPO11 / Fold change vs veh, IPO11 / RFU, DFFB / Fold change vs veh, DFFB / RFU, FOXP1 / Fold change vs veh, FOXP1 / RFU, CARD8 / Fold change vs veh, CARD8 / RFU, STRN3 / Fold change vs veh, STRN3 / RFU, ADK / Fold change vs veh, ADK / RFU, RASSF2 / Fold change vs veh, RASSF2 / RFU, WIPF1 / Fold change vs veh, WIPF1 / RFU, LARP1B / Fold change vs veh, LARP1B / RFU, RASA1 / Fold change vs veh, RASA1 / RFU, RB1 / Fold change vs veh, RB1 / RFU, PPFIA1 / Fold change vs veh, PPFIA1 / RFU, MAT2A / Fold change vs veh, MAT2A / RFU, CCT5 / Fold change vs veh, CCT5 / RFU, WDR92 / Fold change vs veh, WDR92 / RFU, CUX1 / Fold change vs veh, CUX1 / RFU, TTC7A / Fold change vs veh, TTC7A / RFU, TMEM135 / Fold change vs veh, TMEM135 / RFU, DEPTOR / Fold change vs veh, DEPTOR / RFU, CPM / Fold change vs veh, CPM / RFU, DNAJB6 / Fold change vs veh, DNAJB6 / RFU, CACNA2D3 / Fold change vs veh, CACNA2D3 / RFU, DTX4 / Fold change vs veh, DTX4 / RFU, TFCP2 / Fold change vs veh, TFCP2 / RFU, GMCL1 /// GMCL1P1 / Fold change vs veh, GMCL1 /// GMCL1P1 / RFU, AEBP2 / Fold change vs veh, AEBP2 / RFU, SNHG1 /// SNORD22 /// SNORD25 /// SNORD26 /// SNORD27 /// SNORD28 /// SNORD29 /// SNORD31 / Fold change vs veh, SNHG1 /// SNORD22 /// SNORD25 /// SNORD26 /// SNORD27 /// SNORD28 /// SNORD29 /// SNORD31 / Fold change (Aza/veh), C12orf56 (ProbeSet 11735607_a_at) / Fold change (ACY-1035/veh), C12orf56 (ProbeSet 11735607_a_at) / Fold change (Aza/veh), FGFR1OP (ProbeSet 11751329_s_at) / Fold change (ACY-1035/veh), FGFR1OP (ProbeSet 11751329_s_at) / Fold change (Aza/veh), VPS36 (ProbeSet 11739960_a_at) / Fold change (ACY-1035/veh), VPS36 (ProbeSet 11739960_a_at) / RFU SYPL1 (11715823_x_at) / Fold change /veh SYPL1 (11715823_x_at) / RFU IGFBP7 (11715501_s_at) / Fold change /veh IGFBP7 (11715501_s_at) / RFU REEP3 (11722064_at) / Fold change /veh REEP3 (11722064_at) / RFU IGLL1 (11728026_x_at) / Fold change /veh IGLL1 (11728026_x_at): dose or concentration left out as unconfirmed
Settings: ProbeSet 11728314_at; LIST B

Nc1ccc(-c2cccs2)cc1NC(=O)c1ccc2c(c1)cc(C1CC1)n2CCN1CCOCC1 [ACY-1035]
Fold change vs veh, ZNF148: 0.92
